# Laboratory results: patent US11779597B2, “Method of treating Parkinson's and other neurodegenerative diseases” (Vector Vitale IP LLC, priority 2019, dated 2023)
# Entries after “also recorded” stand apart in the source; their conditions may differ.
# What was measured:
# Format in all cases: in vivo
# [1] = tested on: LPS rat models of parkinsonism; experiment: Apomorphine test in LPS rat models of parkinsonism
# Protocol: Chronic dopamine deficiency of the left hemisphere was modeled by unilateral destruction of dopaminergic neurons in the Substantia nigra pars compacta portion of the brain. It was induced by stereotactic microinjections of 10 μg endotoxin (lipopolysaccharide) (Lipopolysaccharides from Escherichia coli O111:B4, cat. L2630 Sigma) dissolved in 2 μl sterile 0.9% NaCl (Infuzia CJSC, Ukraine). The solution was prepared on the day of a surgical procedure. A flask containing the resulting solution was sealed with a drop of silicone oil (STEP-E[…], Ukraine) and placed in a refrigerator.
# An animal, anesthetized using a mixture of ketamine (75 mg/kg, diluted in sterile water for injection, Sigma, USA) and 2% xylazine ([…], Alfasan International B.V., Netherlands) administered intraperitoneally in a total volume of 1 ml, was placed in a stereotaxic apparatus (SEZH-4) modified for rats. The animal was then scalped and a trephine opening was made with an injection needle, directly into the substantia nigra (AP=−5.3; ML=±2.0; DV=−7.2). Dissolved LPS was collected into a home-made microinjector and its tip was dropped into the trephine opening.
# Endotoxin at a dose of 10 μg in a volume of 2 μl was injected in the brain tissue at a rate of […] (every 15 seconds). After endotoxin was administered, the tip of the microinjector remained in the brain tissue for 5 minutes. The microinjector was then removed and stitches were put on the scalp soft tissues of the animal. Control animals were administered 2 μl sterile 0.9% NaCl, instead of LPS (sham operated animals).
# The percentage of destroyed dopaminergic neurons was calculated using an apomorphine test. The intensity of rotational motions of an animal to the contralateral side of the hemisphere into which endotoxin was injected was assessed. A similar motor activity was induced by systemic intraperitoneal administration of apomorphine, a dopamine receptor agonist (0.5 mg/kg, Sigma, USA). The intensity of such rotational motions for 30 minutes indicated the degree of degradation of the nigrostriatal dopamine system (SA Talanov et al., Neurophysiology 38 (2), 128-133). The number of animals in which the number of rotations increased, decreased or remained unchanged within 30 minutes between apomorphine test I and II was quantified.
# On the 1st day of the experiment, rats were either operated to model hemi-parkinsonism or sham operated. From the 9th to the 18th day of the experiment, the animals were injected either deuterium-depleted water or the test substance, according to their allocation into groups, for 10 days. […]
# [2] = tested on: circulating monocytes and granulocytes; experiment: Functional and phenotypic properties of circulating phagocytes in LPS rat models; details: animal models of PD
# Protocol: On the 1st day of the experiment, rats were either operated to model hemi-parkinsonism or sham operated. From the 9th to the 18th day of the experiment, the animals were injected either deuterium-depleted water or the test substance, according to their allocation into groups, for 10 days. On the 8th day of the experiment (before initiation of treatment—apomorphine test I) and on the 21st day of the experiment (after the end of administering the test substance —apomorphine test II) the animals underwent an apomorphine test to analyze the development of hemi-parkinsonism which correlates with the number of destroyed dopaminergic neurons. In addition, a follow-up analysis of fecal water content was carried out, i.e., before the start of treatment on the 8th day after the operation, as well as on the 21st (after the end of treatment) and the 28th day (before autopsy). On the 24th day of the experiment, behavioral tests were carried out in all groups. All animals were weighed before autopsy. […]
# To assess the anti-inflammatory and immunomodulating effects of the test substance, microglia and peritoneal macrophages were isolated. Phenotypic and functional features of peripheral blood phagocytes were evaluated without their fractioning (using whole blood). […]
# Phagocytic activity of microglia, peritoneal macrophages and peripheral blood phagocytes was analyzed on a flow cytometer using FITC-labeled S. aureus Wood 46 cells as an object of phagocytosis. […]
# Oxidative metabolism of phagocytes of various localization was analyzed by flow cytometry using the cell-permeant 2′7′-dichlorodihydrofluorescein-diacetate (DHP) (carboxy-H2DCFDA, Invitrogen, USA) which is converted by intracellular esterases to the nonfluorescent membrane-impermeable carboxy-H2DCF form.
# The phenotypic profile of phagocytes of various localization was characterized by the expression of markers of functional maturity and metabolic polarization (CD206, CD80 and CD86), which was determined by flow cytometry and the use of monoclonal antibodies of appropriate specificity marked with fluorescent dyes (Abcam, Becton Dickinson).
# [3] = tested on: dopaminergic neurons in the black substance in rat models of Parkinson's disease (6-OHDA); experiment: Apomorphine test / destruction of dopaminergic neurons after prophylactic administration; details: 6-OHDA rat models
# Protocol: Methods: Adult mature rodents were used in the study. […] Before prophylactic administration of the experimental drugs, the animals underwent an open field test to assay their general locomotor activity levels and anxiety. The prophylactic course consisted of 10 daily intraperitoneal injections of the drugs (in the case of combination drug, its components were administered at an interval of 2 hours). After the end of prophylactic course, Parkinson's disease was modelled in the animals. […] Ten days after the last (second) apomorphine test, the animals' behavioral responses were assessed in the open field test followed by euthanasia and analysis of functional (metabolic and phenotypic) profiles of phagocytes of different localization. Thus, the study of the functional profile of phagocytes in rat models of Parkinson's disease was performed on day 28 after the end of the course of prophylactic treatment with the experimental drugs. Resident peritoneal macrophages were isolated from sterile cell suspension of peritoneal exudate; enrichment of the suspension was carried out by 2-hour adhesion. Non-adherent and dead cells were separated by centrifugation. Functional characteristics of circulating phagocytes (monocytes and neutrophils) were evaluated in whole blood taken into a tube containing EDTA used as an anticoagulant. Mononuclear and polymorphonuclear phagocytes were analyzed on a flow cytofluorimeter using a gating method. Phagocytes of microglia were isolated using a Percoll density gradient. To assess the phenotypic profile of phagocytes, expression indices of the pan-phagocytic marker CD14 (co-receptor of the bacterial lipopolysaccharide) and the marker of alternative polarization of phagocytes CD206 (mannose receptor 1) were used. […] The hemogram parameters were analyzed on the hematological analyzer Particle counter model PCE 210 (ERMA, Japan) adapted for the study of blood cells of rats and mice.
substance,measurement,setting,value
^64Zn-enriched zinc aspartate [^64Zne-asp],rats with increased number of rotations between the 1st and 2nd apomorphine tests,"[1]; 1.5 mg/kg i.v. for 10 days, 2 out of 14 animals",14.3%
same,rats with a fewer number of rotations between the 1st and 2nd apomorphine tests,"[1]; 1.5 mg/kg i.v. for 10 days, 12 out of 14 animals",85.7%
same,difference in the mean number of rotations between the 1st and 2nd apomorphine tests,"[1]; LPS rats, 1.5 mg/kg i.v. for 10 days, listed as 64Zn-asp, 1.5 mg/kg",no significant difference; also recorded: did not cause a significant change
same,"mean number of rotations, 1st apomorphine test","[1]; LPS rats, day 8, before start of treatment",91.2±107.7 rot./30 min
same,"expression levels of all three markers (CD206, CD80, CD86) by circulating phagocytes",[2],increase
same,functional reserve of oxidative metabolism of circulating phagocytes,[2],restore
same,oxidative metabolism of circulating phagocytes of both populations,[2],sharply reduced
same,Number of animals with 100% destruction of neurons (%),"[3]; prophylactic 10 daily i.p. injections, at completion of the experiment",35%
same,Rate of rotational movements in animals with 100% destruction of neurons (r/30 min),"[3]; prophylactic i.p., apomorphine test",224.3 ± 35.9 r/30 min
same,"animals with complete loss of neurons, less than in the control","[3]; prophylactic i.p., versus control 75%",over 50%
